Measured values: patent US20180334436A1 (VIIV HEALTHCARE UK LIMITED, priority 2015, published 2018)

Test system: HIV
Test: MT4 assay (anti-HIV activity)
Format: cell-based
Conditions: Human immunodeficiency virus 1, 96 h, antiviral HIV activity in HTLV-1 transformed cell line MT-4; luciferase read 96 hours later; 10 point dose response
Method in brief: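 MT-4 cells infected with HIV, with inhibition readout by CellTiter-Glo luminescence at 96 h relative to no-compound control. Cytotoxicity measured in parallel under the same conditions. IC50 from a 10-point, 3-4-fold dilution series spanning >1000-fold, fitted with a four-parameter logistic equation.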

| Compound | IC50 [nM] |
| --- | --- |
| Cc1ccc(-c2c(C)c3c(c(C)c2[C@H](OC(C)(C)C)C(=O)O)CCN(C(=O)CN2CCCCC2)C3)cc1 [Example 53, (S)-2-(tert-butoxy)-2-(5,8-dimethyl-2-(2-(piperidin-1-yl)acetyl)-7-(p-tolyl)-1,2,3,4-tetrahydroisoquinolin-6-yl)acetic Acid] | 807 |
| Cc1ccc(-c2c(C)c3c(c(C)c2[C@H](OC(C)(C)C)C(=O)O)CCN(C2CCC[C@@H](C)C2)C3)cc1 (single isomer, unassigned) [Example 71] | 14 |
| COc1c(F)cccc1S(=O)(=O)N1CCc2c(C)c([C@H](OC(C)(C)C)C(=O)O)c(-c3ccc(C)cc3)c(C)c2C1 [Example 64, (S)-2-(tert-butoxy)-2-(2-((3-fluoro-2-methoxyphenyl)sulfonyl)-5,8-dimethyl-7-(p-tolyl)-1,2,3,4-tetrahydroisoquinolin-6-yl)acetic Acid] | 89 |
| Cc1c(-c2c(C)c3c(c(C)c2[C@H](OC(C)(C)C)C(=O)O)CC(=O)N(C2CCCCC2)C3)cc(Cl)c2c1CCCO2 (atropisomer, axis not shown) [Example 118] | 4 |
| Cc1ccc(-c2c(C)c3c(c(C)c2[C@H](OC(C)(C)C)C(=O)O)CCN(S(=O)(=O)C2CCCCCC2)C3)cc1 [Example 68, (S)-2-(tert-butoxy)-2-(2-(cycloheptylsulfonyl)-5,8-dimethyl-7-(p-tolyl)-1,2,3,4-tetrahydroisoquinolin-6-yl)acetic Acid] | 50 |
| Cc1ccc(-c2c(C)c3c(c(C)c2[C@H](OC(C)(C)C)C(=O)O)CCN(C(=O)OC(C)(C)C)C3)cc1 [Example 27, (S)-2-(tert-Butoxy)-2-(2-(tert-butoxycarbonyl)-5,8-dimethyl-7-(p-tolyl)-1,2,3,4-tetrahydroisoquinolin-6-yl)acetic Acid] | 114 |
| Cc1ccc(-c2c(C)c3c(c(C)c2[C@H](OC(C)(C)C)C(=O)O)CCN(S(=O)(=O)c2ccccc2)C3)cc1 [Example 41, (S)-2-(tert-butoxy)-2-(5,8-dimethyl-2-(phenylsulfonyl)-7-(p-tolyl)-1,2,3,4-tetrahydroisoquinolin-6-yl)acetic Acid] | 138 |
| Cc1ccc(-c2c(C)c3c(c(C)c2C(OC(C)(C)C)C(=O)O)CN(Cc2ccccc2)C(=O)C3)cc1 (stereo not drawn) [Example 99, 2-(2-Benzyl-5,8-dimethyl-3-oxo-6-(p-tolyl)-1,2,3,4-tetrahydroisoquinolin-7-yl)-2-(tert-butoxy)acetic Acid] | 3300 |
| Cc1ccc(-c2c(C)c3c(c(C)c2[C@H](OC(C)(C)C)C(=O)O)CCN(C2CCC(C)(C)CC2)C3)cc1 [Example 40, (S)-2-(tert-butoxy)-2-(2-(4,4-dimethylcyclohexyl)-5,8-dimethyl-7-(p-tolyl)-1,2,3,4-tetrahydroisoquinolin-6-yl)acetic Acid] | 11 |
| Cc1c(-c2c(C)c3c(c(C)c2[C@H](OC(C)(C)C)C(=O)O)CC(=O)N(C2CCN(C(=O)OC(C)(C)C)CC2)C3)cc(F)c2c1CCCO2 (atropisomer, axis not shown) [Example 115] | 116 |
| Cc1c(-c2c(C)c3c(c(C)c2[C@H](OC(C)(C)C)C(=O)O)CCN(S(=O)(=O)C2CCCCC2)C3)ccc2c1CCCO2 (atropisomer, axis not shown; (M)) [Example 83, (2S)(M)-2-(tert-butoxy)-2-(-2-(cyclohexylsulfonyl)-5,8-dimethyl-7-(5-methylchroman-6-yl)-1,2,3,4-tetrahydroisoquinolin-6-yl)acetic Acid] | 46 |
| Cc1ccc(-c2c(C)c3c(c(C)c2[C@H](OC(C)(C)C)C(=O)O)CCN(S(=O)(=O)N2CCCCC2)C3)cc1 [Example 38, (S)-2-(tert-butoxy)-2-(5,8-dimethyl-2-(piperidin-1-ylsulfonyl)-7-(p-tolyl)-1,2,3,4-tetrahydroisoquinolin-6-yl)acetic Acid] | 23 |
| Cc1ccc(-c2c(C)c3c(c(C)c2[C@H](OC(C)(C)C)C(=O)O)CCN(CCc2ccccc2)C3)cc1 [Example 34, (S)-2-(tert-Butoxy)-2-(5,8-dimethyl-2-phenethyl-7-(p-tolyl)-1,2,3,4-tetrahydroisoquinolin-6-yl)acetic Acid] | 165 |
| Cc1c(-c2c(C)c3c(c(C)c2[C@H](OC(C)(C)C)C(=O)O)CC(=O)N(C2CCCC(C)(C)C2)C3)cc(F)c2c1CCCO2 (stereo partly drawn) [Example 111, (2S)-2-(tert-butoxy)-2-((7R)-2-(3,3-dimethylcyclohexyl)-7-(8-fluoro-5-methylchroman-6-yl)-5,8-dimethyl-3-oxo-1,2,3,4-tetrahydroisoquinolin-6-yl)acetic Acid] | 3 |
| Cc1c(-c2c(C)c3c(c(C)c2[C@H](OC(C)(C)C)C(=O)O)CCN(Cc2ccccc2)C3)cc(F)c2c1CCCO2 [Example 90, (S)-2-((R)-2-Benzyl-7-(8-fluoro-5-methylchroman-6-yl)-5,8-dimethyl-1,2,3,4-tetrahydroisoquinolin-6-yl)-2-(tert-butoxy)acetic Acid] | 67 |
| Cc1ccc(-c2c(C)c3c(c(C)c2C(OC(C)(C)C)C(=O)O)CN(C2CCCCC2)CC3)cc1 (stereo not drawn) [Example 2, 2-(tert-Butoxy)-2-(2-cyclohexyl-5,8-dimethyl-6-(p-tolyl)-1,2,3,4-tetrahydroisoquinolin-7-yl)acetic Acid] | 1720 |
| Cc1ccc(-c2c(C)c3c(c(C)c2C(OC(C)(C)C)C(=O)O)CCN(C(=O)c2cccc(F)c2)C3)cc1 (stereo not drawn) [Example 22, 2-(tert-Butoxy)-2-(2-(3-fluorobenzoyl)-5,8-dimethyl-7-(p-tolyl)-1,2,3,4-tetrahydroisoquinolin-6-yl)acetic Acid] | 329 |
| Cc1ccc(-c2c(C)c3c(c(C)c2[C@H](OC(C)(C)C)C(=O)O)CN(Cc2ccccc2)C(=O)C3)cc1 [Example 100, (S)-2-(2-Benzyl-5,8-dimethyl-3-oxo-6-(p-tolyl)-1,2,3,4-tetrahydroisoquinolin-7-yl)-2-(tert-butoxy)acetic Acid] | 1360 |
| COc1c(F)cccc1N1Cc2c(C)c(-c3cc(F)c4c(c3C)CCCO4)c([C@H](OC(C)(C)C)C(=O)O)c(C)c2CC1=O (atropisomer, axis not shown) [Example 107, (S)-2-(tert-butoxy)-2-((R)-2-(3-fluoro-2-methoxyphenyl)-7-(8-fluoro-5-methylchroman-6-yl)-5,8-dimethyl-3-oxo-1,2,3,4-tetrahydroisoquinolin-6-yl)acetic Acid] | 2 |
| COc1ccc(C(=O)N2CCc3c(C)c([C@H](OC(C)(C)C)C(=O)O)c(-c4cc(F)c5c(c4C)CCCO5)c(C)c3C2)cc1F [Example 92, (S)-2-(tert-Butoxy)-2-((R)-2-(3-fluoro-4-methoxybenzoyl)-7-(8-fluoro-5-methylchroman-6-yl)-5,8-dimethyl-1,2,3,4-tetrahydroisoquinolin-6-yl)acetic Acid] | 153 |
| Cc1ccc(-c2c(C)c3c(c(C)c2[C@H](OC(C)(C)C)C(=O)O)CN(S(=O)(=O)CC2CCCCC2)CC3)cc1 [Example 18, (S)-2-(tert-Butoxy)-2-(2-((cyclohexylmethyl)sulfonyl)-5,8-dimethyl-6-(p-tolyl)-1,2,3,4-tetrahydroisoquinolin-7-yl)acetic Acid] | 1180 |
| Cc1ccc(-c2c(C)c3c(c(C)c2[C@H](OC(C)(C)C)C(=O)O)CN(C(=O)CC(C)(C)C)CC3)cc1 [Example 20, (S)-2-(tert-Butoxy)-2-(2-(3,3-dimethylbutanoyl)-5,8-dimethyl-6-(p-tolyl)-1,2,3,4-tetrahydroisoquinolin-7-yl)acetic Acid] | 119 |
| Cc1ccc(-c2c(C)c3c(c(C)c2C(OC(C)(C)C)C(=O)O)CCN(C(=O)N2CCCCC2)C3)cc1 (stereo not drawn) [Example 23, 2-(tert-Butoxy)-2-(5,8-dimethyl-2-(piperidine-1-carbonyl)-7-(p-tolyl)-1,2,3,4-tetrahydroisoquinolin-6-yl)acetic Acid] | 108 |
| Cc1ccc(-c2c(C)c3c(c(C)c2[C@H](OC(C)(C)C)C(=O)O)CC(=O)N(Cc2ccccc2)C3)cc1 [Example 101, (S)-2-(2-Benzyl-5,8-dimethyl-3-oxo-7-(p-tolyl)-1,2,3,4-tetrahydroisoquinolin-6-yl)-2-(tert-butoxy)acetic Acid] | 4 |
| Cc1ccc(-c2c(C)c3c(c(C)c2[C@H](OC(C)(C)C)C(=O)O)CCN(C(C)C2CCCCC2)C3)cc1 (stereo partly drawn) [Example 70, (2S)-2-(tert-butoxy)-2-(2-(1-cyclohexylethyl)-5,8-dimethyl-7-(p-tolyl)-1,2,3,4-tetrahydroisoquinolin-6-yl)acetic Acid] | 130 |
| Cc1ccc(-c2c(C)c3c(c(C)c2[C@H](OC(C)(C)C)C(=O)O)CCN(C2CCCC(C)(C)C2)C3)cc1 (stereo partly drawn) [Example 52, (2S)-2-(tert-butoxy)-2-(2-(3,3-dimethylcyclohexyl)-5,8-dimethyl-7-(p-tolyl)-1,2,3,4-tetrahydroisoquinolin-6-yl)acetic Acid] | 10 |
| Cc1c(-c2c(C)c3c(c(C)c2[C@H](OC(C)(C)C)C(=O)O)CCN(C2CCCCC2)C3)ccc2c1CCCO2 (atropisomer, axis not shown; (M)) [Example 84, (S)(M)-2-(tert-butoxy)-2-(2-cyclohexyl-5,8-dimethyl-7-(5-methylchroman-6-yl)-1,2,3,4-tetrahydroisoquinolin-6-yl)acetic Acid] | 5 |
| Cc1ccc(-c2c(C)c3c(c(C)c2[C@H](OC(C)(C)C)C(=O)O)CCN(S(=O)(=O)CC(C)(C)C)C3)cc1 [Example 62, (S)-2-(tert-butoxy)-2-(5,8-dimethyl-2-(neopentylsulfonyl)-7-(p-tolyl)-1,2,3,4-tetrahydroisoquinolin-6-yl)acetic Acid] | 11 |
| Cc1c2c(c(C)c([C@H](OC(C)(C)C)C(=O)O)c1-c1ccc(Cl)cc1)CCN(C1CCCCC1)C2 [Example 87, (S)-2-(tert-butoxy)-2-(7-(4-chlorophenyl)-2-cyclohexyl-5,8-dimethyl-1,2,3,4-tetrahydroisoquinolin-6-yl)acetic Acid] | 15 |
| Cc1ccc(-c2c(C)c3c(c(C)c2C(OC(C)(C)C)C(=O)O)CN(CC2CCCCC2)CC3)cc1 (stereo not drawn) [Example 3, 2-(tert-Butoxy)-2-(2-(cyclohexylmethyl)-5,8-dimethyl-6-(p-tolyl)-1,2,3,4-tetrahydroisoquinolin-7-yl)acetic Acid] | 3200 |
